Results taken from paper PMC12867150, “A fungi-derived cyclic peptide enhances Th9-mediated antitumor immunity by targeting ZAP70 and SREBP1” (The Journal of Clinical Investigation, 2025).
“And” between values parts separate entries of the source, which are not always exact repeats. Equal entries are not always repeated. Structures can show the parent of a compound that is named as a salt.

Experiments:
[1] = system: gene expression in Th9 cells; assay: Bulk RNA-seq of Th9 cells (Figure 3A-D, 7G, S5B, S8G-H); type: cell-based, mouse; design: key to Il13 expression (RNA-seq) / Batf expression (RNA-seq) / Il4 expression (RNA-seq) / Il5 expression (RNA-seq) / Il9 expression (RNA-seq) / Tnfsf15 expression (RNA-seq) / Tnf expression (RNA-seq) / Lta expression (RNA-seq) / Fasl expression (RNA-seq) / Tnfsf9 expression (RNA-seq) / Tnfsf14 expression (RNA-seq): FPKM (fragments per kilobase of transcript per million mapped reads); settings: for cluster 2 genes (calcium ion transport, glycolysis, oxidative phosphorylation, ERK signaling) / lipid biosynthesis genes: RNA-seq clustering; for Fpkm of Slc2a1: Supplemental Figure 5B
Protocol: RNA integrity and concentration were assessed by Majorbio Technologies. RNA-seq libraries were constructed following standard Illumina protocols and sequenced using a paired-end strategy on an Illumina platform.
Raw sequencing reads were quality filtered and adapter trimmed using Trim Galore (v0.6.x) and then aligned to the mouse reference genome (GRCm38) with HISAT2 (v2.2.x). Gene-level quantification was performed using featureCounts (v2.0.x) to obtain raw read counts, which were subsequently normalized as fragments per kilobase of transcript per million mapped reads for exploratory analyses and data visualization.
Differential gene expression analysis was conducted using DESeq2 (v1.44.0) in R, with significance thresholds set at an adjusted P < 0.05 and absolute fold change ≥1.5. Visualization of transcriptomic profiles included volcano plots generated via ggplot2 (v3.5.1) and heatmaps rendered using pheatmap (v1.0.12), based on raw expression values.
Gene expression clustering was conducted using the R package ClusterGVis (v0.1.2).

PD-1 on Th9 cells = assay: Flow cytometry of PD-1 on Th9 cells in vitro (Figure 5K, 7E, S3D); type: cell-based, mouse; settings: for PD-1 expression in Th9 cells: Figure 7E, one per column (n = 4); for PD-1 expression in Th9 cells / PD1 (flow cytometric quantification): individual replicates; for PD-1 expression: result in words; for PD1 (flow cytometric quantification): Figure 5K, (n = 5); for Expression of PD-1 in Th9: Supplemental Figure 3D
Protocol: Naive CD4^+ T cells were isolated from the spleens of C57BL/6J or CD45.1^+ OT-II mice using the MojoSort Mouse CD4 Naive T Cell Isolation Kit (BioLegend, catalog 480040), following the manufacturer’s protocol. Purified cells were cultured in RPMI-1640 medium supplemented with 10% FBS, 1% penicillin-streptomycin, and 0.1% β-mercaptoethanol (Gibco, catalog 21985023).
T cell polarization was initiated under plate-bound anti-CD3 (2 μg/mL, clone 17A2, BioXCell, catalog BE0002) and soluble anti-CD28 (1 μg/mL, clone 37.51, BioXCell, catalog BE0015-1) stimulation, with the addition of cytokines and neutralizing antibodies specific to each subset. For Th9 cells, these included IL-4 (10 ng/mL, Peprotech, catalog 400-04), TGF-β (1 ng/mL, EPOTO Biotech, catalog HF-2021), anti–IL-12 (5 μg/mL, clone C17.8, BioXCell, catalog BE0051), and anti–IFN-γ (10 μg/mL, clone XMG1.2, BioXCell, catalog BE0055); for Th1 cells, these included IL-12 (10 ng/mL, GenScript, catalog Z03211-50) and anti–IL-4 (5 μg/mL, clone 11B11, BioXCell, catalog BE0045); for Th2 cells, these included IL-4 (50 ng/mL), anti–IFN-γ (20 μg /mL), anti–IL-12 (5 μg/mL), Th17 cells: IL-6 (20 ng/mL, EPOTO Biotech, catalog MF-1006), TGF-β (1 ng/mL), IL-1β (10 ng/mL, Peprotech, catalog AF-211-11B), anti–IFN-γ (10 μg/mL), anti–IL-12 (5 μg/mL), and anti–IL-4 (5 μg/mL); and for Tregs, these included TGF-β (3 ng/mL). After 3 days of initial culture, cells were either collected for downstream assays or continued in extended culture with refreshed cytokines to maintain lineage commitment.
Details regarding staining panels (human and mouse), reagents (including clones and catalog numbers), acquisition settings, compensation/controls, and analysis procedures are provided in Supplemental Methods.
BioLegend, Cat. No. 422301 or Mouse TruStain FcX™, BioLegend, Cat. No. 101319) for 10 minutes at 4°C. For surface marker detection, cells were stained with fluorochrome-conjugated monoclonal antibodies in 96-well V-bottom plates and incubated on ice for 30 minutes. After staining, cells were washed twice and resuspended in FACS buffer for analysis.
Prior to intracellular cytokine staining, cells were restimulated for 4 hours with PMA (Absin, Cat. No. abs9107), ionomycin (Sigma-Aldrich, Cat. No. I0634), and brefeldin A (MedChemExpress, Cat. No. HY-16592). For intracellular cytokine staining, cells were first surface-stained as described above, then fixed and permeabilized using the BD Cytofix/Cytoperm™ kit (BD Biosciences, Cat. No. 554714) according to the manufacturer ’s protocol. Intracellular proteins were stained with directly conjugated antibodies targeting IL-9, IL-17a, IL-4, IFN-γ, TNF-α, FOXP3, p-ZAP70, Perforin, and […]
Antibodies used for mouse samples included those against IL-9 (PE, clone RM9A4, Biolegend, Cat. No. 514104), IFN-γ (PE, clone XMG1.2, Biolegend, Cat. No.
Cat. No. 103138), CD4 (APC/Cy7, clone E-AB-F1353UJ, Elabscience, Cat. No.
AF18028), CD8α (PerCP/Cy5.5, clone E-AB-F1104UJ, Elabscience, Cat. No. […]
clone E-AB-F1187UH, Elabscience, Cat. No. AF19854), TNF-α (BV421, clone MP6-XT22, Biolegend, Cat. No. 506328), FOXP3 (PE, clone FJK-16s, eBioscience, Cat. No.
Perforin (APC, clone S16009A, Biolegend, Cat. No. 154303) and Granzyme B (APC, […]
clone QA16A02, Biolegend, Cat. No. 372203). […]

[2] = EpA + fatostatin, result in words
[3] = EpA vs control, adjusted P < 0.05, fold change ≥1.5
[4] = Th9, day 4, samples EPA_1 to EPA_3

Compound: CCCc1cc(-c2nc(-c3ccc(C)cc3)cs2)ccn1 [fatostatin, fatostatin hydrobromide, reference compound]
- cluster 2 genes (calcium ion transport, glycolysis, oxidative phosphorylation, ERK signaling) ([1]; result in words): further enhanced
- lipid biosynthesis genes ([1]; result in words): further suppressed
- PD-1 expression in Th9 cells (PD-1 on Th9 cells; single agent, 10 µM): 384 and 402 and 369 and 372
- PD-1 expression (PD-1 on Th9 cells; fatostatin alone or with EpA): induced PD-1 upregulation in control Th9 cells

Compound: anteiso-C15 Leu7 surfactin [EpA]
- Fads1 expression [1, 2]: reduced expression
- Srebp1 expression [1, 2]: reduced expression
- number of downregulated genes [1, 3]: 271
- number of upregulated genes [1, 3]: 228
- cluster 2 genes (calcium ion transport, glycolysis, oxidative phosphorylation, ERK signaling) ([1]; result in words): notably upregulated
- lipid biosynthesis genes ([1]; result in words): progressively downregulated
- Fpkm of Slc2a1 ([1]; replicate 1): 48.3562 Fpkm
- Fpkm of Slc2a1 ([1]; replicate 2): 48.7446 Fpkm
- Fpkm of Slc2a1 ([1]; replicate 3): 49.9027 Fpkm
- Batf expression (RNA-seq) [1, 4]: 93.0998 and 96.722 and 96.1164
- Fasl expression (RNA-seq) [1, 4]: 9.708 and 9.458 and 10.2176
- Il4 expression (RNA-seq) [1, 4]: 8.523 and 8.979 and 8.835
- Il5 expression (RNA-seq) [1, 4]: 0.7687 and 0.6368 and 0.9066
- Il9 expression (RNA-seq) [1, 4]: 619.89 and 651.961 and 648.029
- Il13 expression (RNA-seq) [1, 4]: 15.584 and 17.9728 and 14.2881
- Lta expression (RNA-seq) [1, 4]: 41.371 and 42.2064 and 41.7705
- Tnf expression (RNA-seq) [1, 4]: 5.46 and 5.834 and 6.11
- Tnfsf9 expression (RNA-seq) [1, 4]: 1.423 and 1.362 and 1.3365
- Tnfsf14 expression (RNA-seq) [1, 4]: 5.499 and 5.503 and 5.511
- Tnfsf15 expression (RNA-seq) [1, 4]: 0.1165 and 0.1206 and 0.07294
- SLC2A1 expression ([1]; result in words): markedly upregulated
- Th9 cytokines (Il9, Il4, Il5, Il13) and Spi1, Batf expression ([1]; result in words): upregulated
- cytotoxic effector molecules Tnf, Lta, Fasl ([1]; result in words): strong upregulation
- PD-1 expression (PD-1 on Th9 cells; EpA-Th9 cells in vitro): increased PD-1 expression
- PD1 (flow cytometric quantification) (PD-1 on Th9 cells; EpA + ERKin combination): 205 and 196 and 199 and 194 and 192
- PD1 (flow cytometric quantification) (PD-1 on Th9 cells; EpA + MEKin combination): 163 and 169 and 166 and 170 and 159
- PD1 (flow cytometric quantification) (PD-1 on Th9 cells; single agent): 986 and 1657 and 450 and 878 and 1491
- PD-1 expression in Th9 cells (PD-1 on Th9 cells; EpA (10 µM) + Fatostatin (10 µM)): 424 and 342 and 382 and 324
- PD-1 expression in Th9 cells (PD-1 on Th9 cells; single agent, 10 µM): 366 and 370 and 368 and 374
- Expression of PD-1 in Th9 (PD-1 on Th9 cells; replicate 1): 836
- Expression of PD-1 in Th9 (PD-1 on Th9 cells; replicate 2): 830
- Expression of PD-1 in Th9 (PD-1 on Th9 cells; replicate 3): 871
- Expression of PD-1 in Th9 (PD-1 on Th9 cells; replicate 4): 812
- Expression of PD-1 in Th9 (PD-1 on Th9 cells; replicate 5): 848
- Expression of PD-1 in Th9 (PD-1 on Th9 cells; replicate 6): 842
- PD-1 expression (PD-1 on Th9 cells; fatostatin alone or with EpA): not further increased in EpA-Th9 cells treated with fatostatin
